Results: patent US10010576B2, “Method of treatment” (Hexima Limited, priority 2014, dated 2018)

Assays:
C. albicans = experiment: Antifungal growth inhibition assay in 96 well microtitre plates (A595); format: cell-based, Candida albicans
Procedure: (§1) The inhibitory effects of the plant defensins on the growth of Trichophyton rubrum, T. interdigitale, Microsporum fulvum and C. albicans (obtained from the National Mycology Reference Centre, South Australia Pathology at the Women's and Children's Hospital, Adelaide, Australia) are measured essentially as described by Broekaert et al. (1990) FEMS Microbiol Lett 69:55-59. Spores of T. rubrum, T. interdigitale and M. fulvum are isolated from sporulating fungus growing on 1⁄2 strength Sabouraud dextrose agar (SDA). Spores were removed from the plates by the addition of 1⁄2 strength potato dextrose broth (PDB). C. albicans cells are grown in Yeast Peptone Broth (YPD) for 16 h. Spore and cell concentrations are measured using a hemocytometer. Antifungal assays are conducted in 96 well microtitre plates essentially as herein described. Wells are loaded with 20 μm L of filter sterilized (0.22 μm syringe filter, Millipore) defensin (10× stock for each final concentration) or water and 80 μm L of 5×10^4 spores/mL (T. rubrum, T. interdigitale, M. fulvum) or 5,000 cells/mL (C. albicans) in 1⁄2 strength PDB. The plates are incubated at 30° C. Fungal growth is assayed by measuring optical density at 595 nm ([…]) using a microtitre plate reader (SpectraMax Pro M2; Molecular Devices. Growth is allowed to proceed until the optical density (OD) of the fungus in the absence of any test defensin reached an OD of 0.2. Each test is performed in duplicate.

T. interdigitale = experiment: as above; format: cell-based, Trichophyton interdigitale
Procedure: as §1

[1] = tested on: Trichophyton rubrum, T. interdigitale, Microsporum fulvum and C. albicans; experiment: Inhibition assays, summary across the range of fungal pathogens; format: cell-based; settings: summary of Table 3
Procedure: as §1

Trichophyton rubrum = experiment: Antifungal growth inhibition assay in 96 well microtitre plates (A595); format: cell-based
Procedure: as §1

Microsporum fulvum = experiment: as above; format: cell-based
Procedure: as §1

[2] = tested on: Human monocytic lymphoma (U937) cells; format: cell-based
Procedure: Human monocytic lymphoma (U937) cells are cultured in RPMI-1640 medium. All culture media are supplemented with 5-10% v/v fetal calf serum, 100 U/ml of penicillin, and 100 μg/ml of streptomycin. Cell lines are cultured at 37° C. in a humidified atmosphere containing 5% v/v CO2. Adherent cell lines are detached from the flask by adding a mixture containing 0.25% v/v trypsin and […] EDTA. A flow cytometry-based propidium iodide (PI) uptake assay is performed to analyze the ability of plant defensins to permeabilize U937 cells (essentially as described in Poon et al, 2014). Briefly, cells are suspended to 1×10^6 cells/ml in 0.1% v/v BSA/RPMI-1640 and incubated with plant defensins (10 μM) at 37° C. for 30 min Samples are added to PBS containing a final concentration of 1 μg/ml PI and placed on ice. Samples are then analyzed immediately using the BD FACSCanto II Flow Cytometer and BD FACSDiva software v6.1.1. The resultant flow cytometry data is analyzed using FlowJo software v8.8.6. Cells are gated appropriately based on forward scatter and side scatter and cell permeabilization is defined by PI-positive staining.

[3] = Penetration through human nails (nail adapter, wetted cotton bud receptor, RP-HPLC); format: in vitro ADME
Procedure: Penetration of NaD1 through human nails was measured according to the method of Hui et al. (2002) J Pharm Sci 91(1):189-195. Human toenails were obtained from ScienceCare (USA) and washed with phosphate buffered saline (details, PBS) before being placed on a kimwipe that had been soaked in PBS for 3 h to rehydrate the nail. […]
The cotton bud in contact with the underside of the nail was removed after 24 h and every 24 h following. Protein that had passed through the nail was recovered from the cotton bud by washing twice with 500 μL of 0.1% v/v trifluoroacetic acid. Recovered protein was quantified using RP-HPLC.

[4] = Day 3, 10 uL of 10% solution, 0.8 cm^2, daily application
[5] = Day 6, 10 uL of 10% solution, 0.8 cm^2, daily application
[6] = Day 9, 10 uL of 10% solution, 0.8 cm^2, daily application
[7] = Day 12, 10 uL of 10% solution, 0.8 cm^2, daily application
[8] = Day 15, 10 uL of 10% solution, 0.8 cm^2, daily application

Compound | IC50 against C. albicans (C. albicans) [µg/mL] | IC50 against T. interdigitale (T. interdigitale) [µg/mL] | Antifungal activity across the range of fungal pathogens [1] | IC50 against T. rubrum (Trichophyton rubrum) [µg/mL] | IC50 against M. fulvum (Microsporum fulvum) [µg/mL] | Cells permeabilized (PI-positive) [2] | also measured
HXL035: Class I plant defensin from Picramnia pentandra, SEQ ID NO:2 (KVCTKPSKFFKGLCGFDRDCTVACKKEGLASGFCQNKGFFNVVCVCRKPC; HXL035 Picramnia pentandra) | 18 | 1 | the most effective plant defensins across the range of fungal pathogens | 2 | 2 |  | 
HXL005: Class I plant defensin from Taraxcum kok-saghyz, SEQ ID NO:8 (Table 1) (KMCQTTSHAFSCVNDSGCSGSCEKQGFASGKCDGVRRRCTCYKKC; HXL005 Taraxcum kok-saghyz) | 22 | 3.5 | the most effective plant defensins across the range of fungal pathogens | 3 | 5 | ~25% | 
HXP4: Artificial defensin variant, Loop1B from a Class I defensin replaces that of a Solanaceous Class II defensin, SEQ ID NO:21 (RECKTESHRFKGPCITKPPCRKACISEKFTDGHCSKILRRCLCTKPC; HXP4) |  |  |  |  |  | 13% | 
HXL009: Class I plant defensin from Zea mays, SEQ ID NO:9 (Table 1) (TVCMRHNNFYHGPCMSNKDCANSCVQHNLGVGGYCRGKIPFNKECMCTFEC; HXL009 Zea mays) | >100 |  | did not display any activity at the concentrations tested |  | >100 | less than 2% | 
HXL013: Class I plant defensin from Glycine max, SEQ ID NO:11 (KDCLTRRHGFQGRCLFDRQCAHVCRSDGFIGGQCRGPLRKCFCSRPC; HXL013 Glycine max) | 20 |  | intermediate activity | 22 | 5.5 | 5% | 
OB1OCc2cc(F)ccc21 [Tavaborole, tavaborole] |  |  |  |  |  |  | Cumulative amount through nail [3, 4]: 60 µg; Cumulative amount through nail, percent (line without head; fits percent of cumulative applied dose) [3, 4]: 2.0%; Cumulative amount through nail [3, 5]: 220 µg; Cumulative amount through nail, percent (line without head; fits percent of cumulative applied dose) [3, 5]: 3.7%; Cumulative amount through nail [3, 6]: 610 µg; Cumulative amount through nail, percent (line without head; fits percent of cumulative applied dose) [3, 6]: 6.8%; Cumulative amount through nail [3, 7]: 1280 µg; Cumulative amount through nail, percent (line without head; fits percent of cumulative applied dose) [3, 7]: 10.7%; Cumulative amount through nail [3, 8]: 2240 µg; Cumulative amount through nail, percent (line without head; fits percent of cumulative applied dose) [3, 8]: 14.9%
C=C1CCN([C@H](C)[C@](O)(Cn2cncn2)c2ccc(F)cc2F)CC1 [Efinaconazole, efinaconazole] |  |  |  |  |  |  | Cumulative amount through nail ([3]; human, 1 day, 10 %): 0.4 µg; Cumulative amount through nail, percent (line without head; fits percent of applied dose) ([3]; human, 1 day, 10 %): 0.2%; Cumulative amount through nail ([3]; human, 2 day, 10 %): 0.7 µg; Cumulative amount through nail, percent (line without head; fits percent of applied dose) ([3]; human, 2 day, 10 %): 0.4%; Cumulative amount through nail ([3]; human, 3 day, 10 %): 1.3 µg; Cumulative amount through nail, percent (line without head; fits percent of applied dose) ([3]; human, 3 day, 10 %): 0.7%; Cumulative amount through nail ([3]; human, 4 day, 10 %): 1.6 µg; Cumulative amount through nail, percent (line without head; fits percent of applied dose) ([3]; human, 4 day, 10 %): 0.8%; Cumulative amount through nail ([3]; human, 6 day, 10 %): 2.6 µg; Cumulative amount through nail, percent (line without head; fits percent of applied dose) ([3]; human, 6 day, 10 %): 1.3%; Cumulative amount through nail ([3]; human, 9 day, 10 %): 4.0 µg; Cumulative amount through nail, percent (line without head; fits percent of applied dose) ([3]; human, 9 day, 10 %): 2.0%; Cumulative amount through nail ([3]; human, 12 day, 10 %): 5.4 µg; Cumulative amount through nail, percent (line without head; fits percent of applied dose) ([3]; human, 12 day, 10 %): 2.7%; Cumulative amount through nail ([3]; human, 15 day, 10 %): 6.5 µg; Cumulative amount through nail, percent (line without head; fits percent of applied dose) ([3]; human, 15 day, 10 %): 3.3%
HXL003: Class I plant defensin from Triticum aestivum, SEQ ID NO:6 (ARDCTSQSHKFVGLCLSDRNCASVCLTEYFTGGKCDHRRCVCTKGC; HXL003 Triticum aestivum) | >100 |  |  |  | >100 |  | 
HXL002: Class I plant defensin from Triticum aestivum, SEQ ID NO:5 (RDCLSQSHKFKGACLSSSNCAAVCRTENFPDGECHTHNFARKCFCKRAC; HXL002 Triticum aestivum) | 35 |  |  |  | 50 | less than 2% | Inhibition of C. albicans (C. albicans): very poor inhibitors; Inhibition of M. fulvum (Microsporum fulvum): very poor inhibitors
HXL015: Class I plant defensin from Oryza sativa, SEQ ID NO:12 (RHCLSQSHRFKGMCVSSNNCANVCRTESFPDGECKSHGLERKCFCKKVC; HXL015 Oryza sativa) |  | 3.5 | intermediate activity | 10 | 12.5 |  | 
HXL001: Class I plant defensin from Zea mays, SEQ ID NO:4 (RHCLSQSHRFKGLCMSSNNCANVCQTENFPGGECKAEGATRKCFCKKIC; HXL001 Zea mays) | 35 |  | did not display any activity at the concentrations tested | >100 | >100 | less than 2% | 
Cc1cc(C2CCCCC2)n(O)c(=O)c1 [Ciclopirox, ciclopirox] |  |  |  |  |  |  | Cumulative amount through nail ([3]; human, 3 day, 10 %): 1 µg; Cumulative amount through nail, percent (line without head; fits percent of cumulative applied dose) ([3]; human, 3 day, 10 %): 0.03%; Cumulative amount through nail ([3]; human, 6 day, 10 %): 2 µg; Cumulative amount through nail, percent (line without head; fits percent of cumulative applied dose) ([3]; human, 6 day, 10 %): 0.03%; Cumulative amount through nail ([3]; human, 9 day, 10 %): 4 µg; Cumulative amount through nail, percent (line without head; fits percent of cumulative applied dose) ([3]; human, 9 day, 10 %): 0.04%; Cumulative amount through nail ([3]; human, 12 day, 10 %): 6 µg; Cumulative amount through nail, percent (line without head; fits percent of cumulative applied dose) ([3]; human, 12 day, 10 %): 0.05%; Cumulative amount through nail ([3]; human, 15 day, 10 %): 9 µg; Cumulative amount through nail, percent (line without head; fits percent of cumulative applied dose) ([3]; human, 15 day, 10 %): 0.06%
HXL012: Class I plant defensin from Amaranthus retroflexus, SEQ ID NO:10 (RMCKAPSKLFRGMCGIRDSNCDSVCRAEGMAAGDCHGLRRRCICSRPC; HXL012 Amaranthus retroflexus) | 42 | 2 | intermediate activity | 2 | 18 | less than 2% | Nail penetration [3]: did not penetrate the nail
